Reference: article PMC5218480 (PLoS ONE, 2017)

Test system: MV-4-11 cells
Assay: Gene expression microarray analysis (Affymetrix PrimeView) and GSEA
Assay type: cell-based, human
Parameters: RFU PODN (11730768_x_at) / Fold change /veh PODN (11730768_x_at) / RFU LINC00158 (11744669_a_at) / Fold change /veh LINC00158 (11744669_a_at) / RFU DUSP10 (11751237_a_at) / Fold change /veh DUSP10 (11751237_a_at) / RFU ID3 (11757404_x_at) / Fold change /veh ID3 (11757404_x_at) / RFU PLEKHG5 (11737974_s_at) / Fold change /veh PLEKHG5 (11737974_s_at) / RFU LRRC4B (11730491_at) / Fold change /veh LRRC4B (11730491_at) / RFU GIMAP4 (11747438_a_at) / Fold change /veh GIMAP4 (11747438_a_at) / RFU KRT8 (11758183_x_at) / Fold change /veh KRT8 (11758183_x_at) / RFU CNN1 (11734310_a_at) / Fold change /veh CNN1 (11734310_a_at) / RFU VPS37D (11726825_at) / Fold change /veh VPS37D (11726825_at) / RFU C10orf10 (11716522_x_at) / Fold change /veh C10orf10 (11716522_x_at) / RFU KIR2DL2 /// KIR2DL4 /// KIR2DL5A /// KIR2DL5B /// KIR2DS1 /// KIR2DS2 /// KIR2DS3 /// KIR2DS4 /// KIR3DL3 /// KIR3DL3 /// KIR3DS1 (11738374_at) / Fold change /veh KIR2DL2 /// KIR2DL4 /// KIR2DL5A /// KIR2DL5B /// KIR2DS1 /// KIR2DS2 /// KIR2DS3 /// KIR2DS4 /// KIR3DL3 /// KIR3DL3 /// KIR3DS1 (11738374_at) / RFU C1QL1 (11718748_at) / Fold change /veh C1QL1 (11718748_at) / RFU TMPRSS4 (11747572_a_at) / Fold change /veh TMPRSS4 (11747572_a_at) / RFU HAMP (11756126_x_at) / Fold change /veh HAMP (11756126_x_at) / RFU RNFT2 (11725882_a_at) / Fold change /veh RNFT2 (11725882_a_at) / RFU NR4A2 (11747474_a_at) / Fold change /veh NR4A2 (11747474_a_at) / RFU ABCC12 (11746883_a_at) / Fold change /veh ABCC12 (11746883_a_at) / RFU TMEM136 (11760407_x_at) / Fold change /veh TMEM136 (11760407_x_at) / RFU CLDN22 /// WWC2 (11732394_at) / Fold change /veh CLDN22 /// WWC2 (11732394_at) / RFU HLA-DPB1 (11760878_x_at) / Fold change /veh HLA-DPB1 (11760878_x_at) / RFU SPINT1 (11716480_a_at) / Fold change /veh SPINT1 (11716480_a_at) / RFU GAP43 (11754022_s_at) / Fold change /veh GAP43 (11754022_s_at) / RFU A4GNT (11735810_at) / Fold change /veh A4GNT (11735810_at) / RFU PRB3 (11715151_x_at) / Fold change /veh PRB3 (11715151_x_at) / RFU TUBB4B (11761932_at) / Fold change /veh TUBB4B (11761932_at) / RFU CAPN14 (11732068_a_at) / Fold change /veh CAPN14 (11732068_a_at) / RFU TMCC2 (11721928_a_at) / Fold change /veh TMCC2 (11721928_a_at) / RFU IRGQ (11745062_a_at) / Fold change /veh IRGQ (11745062_a_at) / RFU FAM174B (11720279_a_at) / Fold change /veh FAM174B (11720279_a_at) / RFU TMPRSS4 (11748680_a_at) / Fold change /veh TMPRSS4 (11748680_a_at) / RFU FAM212B (11763350_a_at) / Fold change /veh FAM212B (11763350_a_at) / RFU PLEKHG5 (11743358_a_at) / Fold change /veh PLEKHG5 (11743358_a_at) / RFU ZSCAN30 (11745921_a_at) / Fold change /veh ZSCAN30 (11745921_a_at) / RFU CMKLR1 (11741424_a_at) / Fold change /veh CMKLR1 (11741424_a_at) / RFU LOC101060620 /// MAPK8IP1 (11723275_at) / Fold change /veh LOC101060620 /// MAPK8IP1 (11723275_at) / RFU SPTSSB (11747773_x_at) / Fold change /veh SPTSSB (11747773_x_at) / RFU PRSS12 (11739890_at) / Fold change /veh PRSS12 (11739890_at) / RFU BIN1 (11741810_x_at) / Fold change /veh BIN1 (11741810_x_at) / RFU WNT11 (11732464_a_at) / Fold change /veh WNT11 (11732464_a_at) / RFU C10orf10 (11716521_a_at) / Fold change /veh C10orf10 (11716521_a_at) / RFU C5orf56 (11738089_at) / Fold change /veh C5orf56 (11738089_at) / RFU CYB561 (11721691_x_at) / Fold change /veh CYB561 (11721691_x_at) / RFU ANKRD19P (11752326_a_at) / Fold change /veh ANKRD19P (11752326_a_at) / RFU OR2T12 /// OR2T33 /// OR2T8 (11738714_s_at) / Fold change /veh OR2T12 /// OR2T33 /// OR2T8 (11738714_s_at) / RFU VCAN (11748164_a_at) / Fold change /veh VCAN (11748164_a_at) / RFU JSRP1 (11732532_at) / Fold change /veh JSRP1 (11732532_at) / RFU KRTAP10-11 (11738290_x_at) / Fold change /veh KRTAP10-11 (11738290_x_at) / RFU MYO3A (11730013_a_at) / Fold change /veh MYO3A (11730013_a_at) / RFU EBF3 (11725865_a_at) / Fold change /veh EBF3 (11725865_a_at) / RFU CAMK2N1 (11719241_x_at) / Fold change /veh CAMK2N1 (11719241_x_at) / RFU C5orf56 (11738088_a_at) / Fold change /veh C5orf56 (11738088_a_at) / RFU OLFML3 (11715873_a_at) / Fold change /veh OLFML3 (11715873_a_at) / RFU LOC100653217 /// NTM (11731650_a_at) / Fold change /veh LOC100653217 /// NTM (11731650_a_at) / RFU MAPK11 (11762145_a_at) / Fold change /veh MAPK11 (11762145_a_at) / RFU FIZ1 (11724087_x_at) / Fold change /veh FIZ1 (11724087_x_at) / RFU OASL (11726364_x_at) / Fold change /veh OASL (11726364_x_at) / RFU SOX15 (11748057_x_at) / Fold change /veh SOX15 (11748057_x_at) / RFU CD79A (11719716_a_at) / Fold change /veh CD79A (11719716_a_at) / RFU HIST1H1D (11736915_at) / Fold change /veh HIST1H1D (11736915_at) / RFU CASKIN2 (11723855_a_at) / Fold change /veh CASKIN2 (11723855_a_at) / RFU LOC730098 (11760151_x_at) / Fold change /veh LOC730098 (11760151_x_at) / RFU OR4N2 (11742367_at) / Fold change /veh OR4N2 (11742367_at) / RFU PRRT2 (11749266_a_at) / Fold change /veh PRRT2 (11749266_a_at) / RFU SNX32 (11753110_a_at) / Fold change /veh SNX32 (11753110_a_at) / RFU CDHR5 (11726645_a_at) / Fold change /veh CDHR5 (11726645_a_at) / RFU RCAN1 (11760418_a_at) / Fold change /veh RCAN1 (11760418_a_at) / RFU FAM167A (11723789_a_at) / Fold change /veh FAM167A (11723789_a_at) / RFU FAM26E (11764081_at) / Fold change /veh FAM26E (11764081_at) / RFU ISYNA1 (11749810_s_at) / Fold change /veh ISYNA1 (11749810_s_at) / RFU ACY1 (11761880_at) / Fold change /veh ACY1 (11761880_at) / RFU 11764098_at / Fold change /veh 11764098_at / RFU SAMD14 (11745864_x_at) / Fold change /veh SAMD14 (11745864_x_at) / RFU NPB (11741838_a_at) / Fold change /veh NPB (11741838_a_at) / RFU TMPRSS6 (11731388_a_at) / Fold change /veh TMPRSS6 (11731388_a_at) / RFU KRTAP10-2 (11738614_at) / Fold change /veh KRTAP10-2 (11738614_at) / RFU ARHGAP8 /// PRR5-ARHGAP8 (11727945_x_at) / Fold change /veh ARHGAP8 /// PRR5-ARHGAP8 (11727945_x_at) / RFU KRTAP5-7 /// NADSYN1 (11734609_at) / Fold change /veh KRTAP5-7 /// NADSYN1 (11734609_at) / RFU RASL12 (11751679_a_at) / Fold change /veh RASL12 (11751679_a_at) / RFU CDKN2B (11736163_a_at) / Fold change /veh CDKN2B (11736163_a_at) / RFU PRF1 (11729649_at) / Fold change /veh PRF1 (11729649_at) / RFU, ZNF638 /// ZNF638-IT1 / Fold change vs veh, ZNF638 /// ZNF638-IT1 / RFU, PANK3 / Fold change vs veh, PANK3 / RFU, SH3YL1 / Fold change vs veh, SH3YL1 / RFU, ZEB2 / Fold change vs veh, ZEB2 / RFU, NRIP1 / Fold change vs veh, NRIP1 / RFU, PTTG1IP / Fold change vs veh, PTTG1IP / RFU, CAPN2 / Fold change vs veh, CAPN2 / RFU, MED14 / Fold change vs veh, MED14 / RFU, SNORA58 / Fold change vs veh, SNORA58 / RFU, C1orf63 / Fold change vs veh, C1orf63 / RFU, LRRFIP1 / Fold change vs veh, LRRFIP1 / RFU, NDUFAF7 / Fold change vs veh, NDUFAF7 / RFU, SLC12A2 / Fold change vs veh, SLC12A2 / RFU, IBTK / Fold change vs veh, IBTK / RFU, ESF1 / Fold change vs veh, ESF1 / Fold change vs veh, TMEM50B / RFU, TAOK1 / Fold change vs veh, TAOK1 / RFU, ACBD3 / Fold change vs veh, ACBD3 / RFU, TMA16 / Fold change vs veh, TMA16 / RFU, RWDD3 / Fold change vs veh, RWDD3 / RFU, BCAT1 / Fold change vs veh, BCAT1 / RFU, EDEM3 / Fold change vs veh, EDEM3 / RFU, TMEM33 / Fold change vs veh, TMEM33 / RFU, WDR75 / Fold change vs veh, WDR75 / RFU, AHCTF1 / Fold change vs veh, AHCTF1 / RFU, TFRC / Fold change vs veh, TFRC / RFU, ZDHHC17 / Fold change vs veh, ZDHHC17 / RFU, NOM1 / Fold change vs veh, NOM1 / RFU, ARL8B / Fold change vs veh, ARL8B / RFU, ZBTB11 / Fold change vs veh, ZBTB11 / RFU, TAMM41 / Fold change vs veh, TAMM41 / RFU, KIAA1704 /// LOC100996395 / Fold change vs veh, KIAA1704 /// LOC100996395 / RFU, ING1 / Fold change vs veh, ING1 / RFU, TRMT61B / Fold change vs veh, TRMT61B / RFU, FUBP3 / Fold change vs veh, FUBP3 / RFU, TP53 / Fold change vs veh, TP53 / RFU, TNKS2 / Fold change vs veh, TNKS2 / RFU, ZFP14 / Fold change vs veh, ZFP14 / RFU, ACTR2 / Fold change vs veh, ACTR2 / RFU, PPP3R1 / Fold change vs veh, PPP3R1 / RFU, PIK3R1 / Fold change vs veh, PIK3R1 / RFU, HNRNPA1 / Fold change vs veh, HNRNPA1 / RFU, RNF170 / Fold change vs veh, RNF170 / RFU, ZNF28 / Fold change vs veh, ZNF28 / RFU, RNGTT / Fold change vs veh, RNGTT / RFU, OGT / Fold change vs veh, OGT / RFU, BRD1 / Fold change vs veh, BRD1 / RFU, MARS / Fold change vs veh, MARS / RFU, ZNF655 / Fold change vs veh, ZNF655 / RFU, FAHD1 / Fold change vs veh, FAHD1 / RFU, BDP1 / Fold change vs veh, BDP1 / RFU, LRRCC1 / Fold change vs veh, LRRCC1 / RFU, ARID1A / Fold change vs veh, ARID1A / RFU, ZNF146 / Fold change vs veh, ZNF146 / RFU, ZNF330 / Fold change vs veh, ZNF330 / RFU, GPN3 / Fold change vs veh, GPN3 / RFU, C9orf123 / Fold change vs veh, C9orf123 / RFU, N4BP2L2 / Fold change vs veh, N4BP2L2 / RFU, ARFIP1 / Fold change vs veh, ARFIP1 / RFU, FAM179B / Fold change vs veh, FAM179B / RFU, BCL10 / Fold change vs veh, BCL10 / RFU, UHRF1BP1L / Fold change vs veh, UHRF1BP1L / RFU, BET1 / Fold change vs veh, BET1 / RFU, CNOT2 / Fold change vs veh, CNOT2 / RFU, ZNF268 / Fold change vs veh, ZNF268 / Fold change vs veh, ZNF507 / RFU, DGCR2 / Fold change vs veh, DGCR2 / RFU, WDSUB1 / Fold change vs veh, WDSUB1 / Fold change vs veh, HSP90B1 /// MIR3652 / RFU, ADSS / Fold change vs veh, ADSS / RFU, GK / Fold change vs veh, GK / RFU, ZNF148 / Fold change vs veh, ZNF148 / RFU, TAF9 / Fold change vs veh, TAF9 / RFU, SLC1A5 / Fold change vs veh, SLC1A5 / RFU, SLMO2 / Fold change vs veh, SLMO2 / RFU, ABCC4 / Fold change vs veh, ABCC4 / RFU, LOC101060439 /// RAP1B / Fold change vs veh, LOC101060439 /// RAP1B / RFU, RFX7 / Fold change vs veh, RFX7 / RFU, GTPBP10 / Fold change vs veh, GTPBP10 / RFU, CNEP1R1 / Fold change vs veh, CNEP1R1 / RFU, BIVM-ERCC5 /// ERCC5 / Fold change vs veh, BIVM-ERCC5 /// ERCC5 / RFU, ILF3 / Fold change vs veh, ILF3 / RFU 11762660_at / Fold change /veh 11762660_at / RFU VCAN (11757783_s_at) / Fold change /veh VCAN (11757783_s_at) / RFU DDX43 (11728927_at) / Fold change /veh DDX43 (11728927_at) / RFU KRT8 (11758188_x_at) / Fold change /veh KRT8 (11758188_x_at) / RFU NKD1 (11759106_at) / Fold change /veh NKD1 (11759106_at) / RFU SRD5A1 (11742802_a_at) / Fold change /veh SRD5A1 (11742802_a_at) / RFU TPSAB1 /// TPSB2 (11721975_s_at) / Fold change /veh TPSAB1 /// TPSB2 (11721975_s_at) / RFU GSTM3 (11746129_a_at) / Fold change /veh GSTM3 (11746129_a_at) / RFU IL23R (11737362_x_at) / Fold change /veh IL23R (11737362_x_at) / RFU TMEM51 (11727254_a_at) / Fold change /veh TMEM51 (11727254_a_at) / RFU PIWIL2 (11732686_x_at) / Fold change /veh PIWIL2 (11732686_x_at) / RFU ORM1 (11744905_x_at) / Fold change /veh ORM1 (11744905_x_at) / RFU CCDC152 (11743942_at) / Fold change /veh CCDC152 (11743942_at) / RFU ECM1 (11717891_a_at) / Fold change /veh ECM1 (11717891_a_at) / RFU IL23R (11748794_a_at) / Fold change /veh IL23R (11748794_a_at) / RFU TNFAIP8L3 (11732012_x_at) / Fold change /veh TNFAIP8L3 (11732012_x_at) / RFU MBOAT4 (11741988_at) / Fold change /veh MBOAT4 (11741988_at) / RFU 11764193_at / Fold change /veh 11764193_at / RFU TMEM53 (11763286_at) / Fold change /veh TMEM53 (11763286_at) / RFU MAGEB2 (11727129_at) / Fold change /veh MAGEB2 (11727129_at) / RFU TMEM200A (11744735_a_at) / Fold change /veh TMEM200A (11744735_a_at) / RFU CCDC152 (11751479_a_at) / Fold change /veh CCDC152 (11751479_a_at) / RFU FAM211A (11726209_a_at) / Fold change /veh FAM211A (11726209_a_at) / RFU RGS16 (11746705_a_at) / Fold change /veh RGS16 (11746705_a_at) / RFU VCAN (11755009_s_at) / Fold change /veh VCAN (11755009_s_at) / RFU RHOB (11743442_s_at) / Fold change /veh RHOB (11743442_s_at) / RFU RGS16 (11720943_a_at) / Fold change /veh RGS16 (11720943_a_at) / RFU RGS16 (11720944_at) / Fold change /veh RGS16 (11720944_at) / RFU, VPS4B / Fold change vs veh, VPS4B / RFU, CREB1 / Fold change vs veh, CREB1 / RFU, DNAJC13 / Fold change vs veh, DNAJC13 / RFU, GNAQ / Fold change vs veh, GNAQ / RFU, CDK5R1 / Fold change vs veh, CDK5R1 / RFU, ZRANB3 / Fold change vs veh, ZRANB3 / RFU, CUL4A / Fold change vs veh, CUL4A / RFU, CCNY / Fold change vs veh, CCNY / RFU, UFL1 / Fold change vs veh, UFL1 / RFU, COG3 / Fold change vs veh, COG3 / RFU, DIAPH2 / Fold change vs veh, DIAPH2 / RFU, SKA2 / Fold change vs veh, SKA2 / RFU, AFF3 / Fold change vs veh, AFF3 / RFU, LMF1 / Fold change vs veh, LMF1 / RFU, IPO11 / Fold change vs veh, IPO11 / RFU, DFFB / Fold change vs veh, DFFB / RFU, FOXP1 / Fold change vs veh, FOXP1 / RFU, CARD8 / Fold change vs veh, CARD8 / RFU, STRN3 / Fold change vs veh, STRN3 / RFU, ADK / Fold change vs veh, ADK / RFU, RASSF2 / Fold change vs veh, RASSF2 / RFU, WIPF1 / Fold change vs veh, WIPF1 / RFU, LARP1B / Fold change vs veh, LARP1B / RFU, RASA1 / Fold change vs veh, RASA1 / RFU, RB1 / Fold change vs veh, RB1 / RFU, PPFIA1 / Fold change vs veh, PPFIA1 / RFU, MAT2A / Fold change vs veh, MAT2A / RFU, CCT5 / Fold change vs veh, CCT5 / RFU, WDR92 / Fold change vs veh, WDR92 / RFU, CUX1 / Fold change vs veh, CUX1 / RFU, TTC7A / Fold change vs veh, TTC7A / RFU, TMEM135 / Fold change vs veh, TMEM135 / RFU, DEPTOR / Fold change vs veh, DEPTOR / RFU, CPM / Fold change vs veh, CPM / RFU, DNAJB6 / Fold change vs veh, DNAJB6 / RFU, CACNA2D3 / Fold change vs veh, CACNA2D3 / RFU, DTX4 / Fold change vs veh, DTX4 / RFU, TFCP2 / Fold change vs veh, TFCP2 / RFU, GMCL1 /// GMCL1P1 / Fold change vs veh, GMCL1 /// GMCL1P1 / RFU, AEBP2 / Fold change vs veh, AEBP2 / RFU, SNHG1 /// SNORD22 /// SNORD25 /// SNORD26 /// SNORD27 /// SNORD28 /// SNORD29 /// SNORD31 / Fold change vs veh, SNHG1 /// SNORD22 /// SNORD25 /// SNORD26 /// SNORD27 /// SNORD28 /// SNORD29 /// SNORD31 / Fold change (Aza/veh), C12orf56 (ProbeSet 11735607_a_at) / Fold change (ACY-1035/veh), C12orf56 (ProbeSet 11735607_a_at) / Fold change (Aza/veh), FGFR1OP (ProbeSet 11751329_s_at) / Fold change (ACY-1035/veh), FGFR1OP (ProbeSet 11751329_s_at) / Fold change (Aza/veh), VPS36 (ProbeSet 11739960_a_at) / Fold change (ACY-1035/veh), VPS36 (ProbeSet 11739960_a_at) / RFU SYPL1 (11715823_x_at) / Fold change /veh SYPL1 (11715823_x_at) / RFU IGFBP7 (11715501_s_at) / Fold change /veh IGFBP7 (11715501_s_at) / RFU REEP3 (11722064_at) / Fold change /veh REEP3 (11722064_at) / RFU IGLL1 (11728026_x_at) / Fold change /veh IGLL1 (11728026_x_at): dose or concentration left out as unconfirmed
Details: ProbeSet 11716999_a_at; LIST D

SMILES: Nc1ccc(-c2cccs2)cc1NC(=O)c1ccc2c(c1)cc(C1CC1)n2CCN1CCOCC1 [ACY-1035]
- Fold change vs veh, RASA1: 0.84
